Results published in paper PMC5908784, “Extracellular loops 2 and 3 of the calcitonin receptor selectively modify agonist binding and efficacy” (Biochemical Pharmacology, 2018).
Numbering of substitutions follows the chain as printed. Where a SMILES comes first, the peptide text is derived from it. Bridges are numbered along the chain shown (N, C = ends).

Experiments:
Assay in all cases: Heterologous whole cell competition binding
Conditions in all cases: heterologous competition of 125I-sCT(8-32), whole cells, mean ± S.E.M., SEM
[1] = target: T1, hCTR Y374A (Homo sapiens, UniProt P30988, Y374A)
T1 construct: c-Myc (N); expressed in transfected cells
T1 sequence (P30988 25-474 Y374A): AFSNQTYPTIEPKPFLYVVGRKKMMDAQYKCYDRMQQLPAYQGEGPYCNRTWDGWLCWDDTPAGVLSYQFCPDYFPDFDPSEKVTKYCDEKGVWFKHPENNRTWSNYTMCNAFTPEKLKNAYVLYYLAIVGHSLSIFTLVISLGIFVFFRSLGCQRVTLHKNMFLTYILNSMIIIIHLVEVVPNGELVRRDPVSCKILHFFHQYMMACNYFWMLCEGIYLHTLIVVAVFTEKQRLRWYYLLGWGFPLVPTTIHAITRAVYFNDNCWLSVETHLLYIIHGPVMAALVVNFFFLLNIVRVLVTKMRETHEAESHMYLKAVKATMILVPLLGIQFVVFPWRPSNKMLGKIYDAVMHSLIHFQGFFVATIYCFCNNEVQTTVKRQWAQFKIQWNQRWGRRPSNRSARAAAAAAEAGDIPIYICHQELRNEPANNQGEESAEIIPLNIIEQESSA
Procedure: (§1) Following overnight incubation non-bound ligand was removed and radioactivity was determined using a gamma counter.
(§2) Data were corrected for radioligand occupancy using the Cheng-Prusoff equation in Prism; as such data are reported as pKi. Emax and EC50 were estimated from concentration-response curves using with a 3-parameter logistic equation in Prism (v7). These values are a composite of functional affinity, efficacy and stimulus response coupling. […] Significance was accepted at P < 0.05.

[2] = target: T2, hCTR D373A (Homo sapiens, UniProt P30988, D373A)
T2 construct: c-Myc (N); expressed in transfected cells
T2 sequence (P30988 25-474 D373A): T1 sequence (P30988 25-474 Y374A) with D349A, A350Y
Procedure: as §1, §2

[3] = target: T3, hCTR S292A (Homo sapiens, UniProt P30988, S292A)
T3 construct: expressed in transfected cells
T3 sequence (P30988 25-474 S292A): T1 sequence (P30988 25-474 Y374A) with S268A, A350Y
Procedure: as §1, §2

[4] = target: T4, hCTR G369A (Homo sapiens, UniProt P30988, G369A)
T4 construct: c-Myc (N); expressed in transfected cells
T4 sequence (P30988 25-474 G369A): T1 sequence (P30988 25-474 Y374A) with G345A, A350Y
Procedure: as §1, §2

[5] = target: T5, hCTR L291A (Homo sapiens, UniProt P30988, L291A)
T5 construct: expressed in transfected cells
T5 sequence (P30988 25-474 L291A): T1 sequence (P30988 25-474 Y374A) with L267A, A350Y
Procedure: as §1, §2

- Ki [1]: 5.89 nM
- Ki [2]: 17.4 nM
- Ki [3]: 2.88 nM
- Ki [4]: 7.94 nM
- Ki [5]: 67.6 nM
SMILES: CSCC[C@H](NC(=O)CNC(=O)[C@H](CO)NC(=O)[C@H](Cc1ccccc1)NC(=O)[C@H](CCCNC(=N)N)NC(=O)[C@H](Cc1c[nH]cn1)NC(=O)[C@H](Cc1ccccc1)NC(=O)[C@H](CC(N)=O)NC(=O)[C@H](CC(N)=O)NC(=O)[C@H](CC(C)C)NC(=O)[C@H](CC(N)=O)NC(=O)[C@H](CCCNC(=N)N)NC(=O)[C@H](Cc1c[nH]c2ccccc12)NC(=O)[C@H](Cc1ccc(O)cc1)NC(=O)[C@H](C)NC(=O)[C@H](CO)NC(=O)[C@H](CC(C)C)NC(=O)[C@@H](NC(=O)[C@@H]1CSSC[C@H](N)C(=O)N[C@@H](CO)C(=O)N[C@@H](CC(N)=O)C(=O)N[C@@H](CC(C)C)C(=O)N[C@@H](CO)C(=O)N[C@@H]([C@@H](C)O)C(=O)N1)C(C)C)C(=O)NCC(=O)N[C@@H](Cc1ccccc1)C(=O)NCC(=O)N1CCC[C@H]1C(=O)N[C@@H](CCC(=O)O)C(=O)N[C@H](C(=O)N1CCC[C@H]1C(N)=O)[C@@H](C)O [pCT] (H-CSNLSTCVLSAYWRNLNNFHRFSGMGFGPETP-NH2; disulfide 1-7)
